Results on 25 molecules are retold here after patent US5340807A, “Tricyclic compounds and intermediates thereof” (priority 1991, dated 1994).

Data set [1] concerns acyl coenzyme A: cholesterol acyltransferase (ACAT). Description: Test for ACAT inhibitory activity (microsome fraction prepared from rabbit liver). In kind it is biochemical. The following applies: 10^-6 M, 37° C., 10 minutes. Here is the method:
Test for ACAT inhibitory activity The test for ACAT inhibitory activity was performed by a modified method of the method of Brecher et al. Biochim. Biophys. […] The radioactivity of the cholesterol ester spot was determined by a liquid scintillation counter. The radio-activity for each test compound was calculated by the difference between the radioactivity with the microsome fraction and the radioactivity without the microsome fraction. The radioactivity of control was determined in a similar manner without any test compound.

In data set [2] the test system is male ddy strain mice. Description: Test for acute toxicity (minimum lethal dose, oral). The following applies: mortality observed seven days after administration. In kind it is in vivo. Here is the method:
Groups of 3 male ddy strain mice weighing 20±1 g were used. The test compounds were orally administered. Seven days after administration, the mortality was observed and the minimum lethal dose (MLD) was determined.

With `CC(C)c1cccc(C(C)C)c1NC(=O)C1c2ccccc2COc2ccc(Br)cc21` (single isomer, unassigned) [Compound 60, (-) -2-Bromo-6,11-dihydro-N-(2,6-diisopropylphenyl) dibenz[b,e]oxepin-11-carboxamide], the “Inhibiting rate(%) of ACAT” value in data set [1] came out at 99%. Regarding `CC(C)c1cccc(C(C)C)c1NC(=O)C1c2ccccc2COc2ccc(Br)cc21` (single isomer, unassigned) [Compound 61, (+) -2-Bromo-6,11-dihydro-N-(2,6-diisopropylphenyi)dibenz[b,e]oxepin-11-carboxamide], the “Inhibiting rate(%) of ACAT” value in data set [1] came out at 92%.

`Cc1ccc2c(c1)C(C(=O)Nc1c(C)cccc1C)c1ccccc1CO2` (stereo not drawn) [Compound 2, 6,11-Dihydro-2-methyl-N-(2,6-dimethylphenyl) dibenz[b,e]-oxepin-11-carboxamide]: in data set [1], the “Inhibiting rate(%) of ACAT” value stood at 66%. `CCc1cccc(CC)c1NC(=O)C1c2ccccc2COc2ccc(C)cc21` (stereo not drawn) [Compound 3, N-(2,6-Diethylphenyl) -6,11-dihydro-2-methyldibenz[b,e]-oxepin-11-carboxamide]: the “Inhibiting rate(%) of ACAT” value in data set [1] was determined as 77%. Also, the “Acute Toxicity (MLD), minimum lethal dose” value (shortened to “Acute Toxicity (MLD)”) in data set [2] is given as > 300 mg/kg. Turning to `Cc1ccc2c(c1)C(C(=O)Nc1ccccc1C(C)C)c1ccccc1CO2` (stereo not drawn) [Compound 5, 6,11-Dihydro-N-(2-isopropylphenyl)-2-methyldibenz[b,e]-oxepin-11-carboxamide], the “Inhibiting rate(%) of ACAT” value in data set [1] came out at 56%. Also, in data set [2], the “Acute Toxicity (MLD)” value was > 300 mg/kg.

For the molecule `CC(C)c1cccc(C(C)C)c1NC(=O)C1c2ccccc2COc2ccc(F)cc21` (stereo not drawn) [Compound 16, 2-Fluoro-6,11-dihydro-N-(2,6-diisopropylphenyl)dibenz[b,e]-oxepin-11-carboxamide], in data set [1], the “Inhibiting rate(%) of ACAT” value is listed as 81%. Also, the “Acute Toxicity (MLD)” value in data set [2] is > 300 mg/kg. `CC(C)c1cccc(C(C)C)c1NC(=O)C1c2ccccc2COc2ccc(Cl)cc21` (stereo not drawn) [Compound 17, 2-Chloro-6,11-dihydro-N-(2,6-diisopropylphenyl)dibenz[b,e]-oxepin-11-carboxamide]: the “Inhibiting rate(%) of ACAT” value in data set [1] stood at 94%. For the same molecule, the “Acute Toxicity (MLD)” value in data set [2] is > 300 mg/kg. In the case of `CC(C)c1cccc(C(C)C)c1NC(=O)C1c2ccccc2COc2ccc(C#N)cc21` (stereo not drawn) [Compound 23, 2-Cyano-6,11-dihydro-N-(2,6-diisopropylphenyl)dibenz[b,e]-oxepin-11-carboxamide], in data set [1], the “Inhibiting rate(%) of ACAT” value is listed as 69%. In addition, the “Acute Toxicity (MLD)” value in data set [2] is recorded as > 300 mg/kg. For `CSc1cc(C(C)C)c(NC(=O)C2c3ccccc3COc3ccc(C)cc32)c(C(C)C)c1` (stereo not drawn) [Compound 30, 6,11-Dihydro-N-(2,6-diisopropyl-4-methylthiophenyl)-2-methyldibenz[b,e]oxepin-11-carboxamide], in data set [1], the “Inhibiting rate(%) of ACAT” value stood at 78%.

`O=C(Nc1c(Cl)cccc1Cl)C1c2ccccc2COc2ccc(Br)cc21` (stereo not drawn) [Compound 39, 2-Bromo-N-(2,6-dichlorophenyl)-6,11-dihydrodibenz[b,e]oxepin-11-carboxamide]: the “Inhibiting rate(%) of ACAT” value in data set [1] was found to be 91%. `CC(C)c1cccc(C(C)C)c1NC(=O)C1c2cc(Br)ccc2OCc2ncccc21` (stereo not drawn) [Compound 42]: in data set [1], the “Inhibiting rate(%) of ACAT” value is listed as 91%. Take `CSc1cc(C(C)C)c(NC(=O)C2c3ccccc3COc3ccc(Br)cc32)c(C(C)C)c1` (stereo not drawn) [Compound 44, 2-Bromo-6,11-dihydro-N-(2,6-diisopropyl-4-methylthiophenyl)dibenz[b,e]oxepin-11-carboxamide]: the “Inhibiting rate(%) of ACAT” value in data set [1] worked out at 95%.

As to `Cc1cc2c(cc1C)C(C(=O)Nc1c(C(C)C)cccc1C(C)C)c1ccccc1CO2` (stereo not drawn) [Compound 48, 6,11-Dihydro-N-(2,6-diisopropylphenyl)-2,3-dimethyldibenz[b,e]oxepin-11-carboxamide], the “Inhibiting rate(%) of ACAT” value in data set [1] is recorded as 96%.

Regarding `Cc1ccc(C)c2c1OCc1ccccc1C2C(=O)Nc1c(C(C)C)cccc1C(C)C` (stereo not drawn) [Compound 49, 6,11-Dihydro-N-(2,6-diisopropylphenyl)-1,4-dimethyldibenz[b,e]oxepin-11-carboxamide], the “Inhibiting rate(%) of ACAT” value in data set [1] is 97%.

As to `CCc1cccc(CC)c1NC(=O)C1c2ccccc2COc2c(C)ccc(C)c21` (stereo not drawn) [Compound 50, 6,11-Dihydro-N-(2,6-diethylphenyl) -1,4-dimethyldibenz[b,e]-oxepin-11-carboxamide], the “Inhibiting rate(%) of ACAT” value in data set [1] was found to be 93%.

As for `COC(=O)c1cc(C)cc2c1OCc1ccccc1C2C(=O)Nc1c(C(C)C)cccc1C(C)C` (stereo not drawn) [Compound 51, Methyl 6,11-dihydro-11-(2,6-diisopropylphenyl)aminocarbonyl-2-methyldibenz[b,e]oxepin-4-carboxylate], in data set [1], the “Inhibiting rate(%) of ACAT” value amounted to 99%. Regarding `CC(C)c1cccc(C(C)C)c1NC(=O)C1c2ccccc2COc2c1cc(Br)cc2[N+](=O)[O-]` (stereo not drawn) [Compound 53, 2-Bromo-6,11-dihydro-N-(2,6-diisopropylphenyl)-4-nitrodibenz[b,e]oxepin-11-carboxamide], the “Inhibiting rate(%) of ACAT” value in data set [1] is 100%. For `CC(C)c1cccc(C(C)C)c1NC(=O)C1c2ccccc2COc2c1cc(Br)cc2N(C)C.Cl` (stereo not drawn) [Compound 55, 2-Bromo-6,11-dihydro-N-(2,6-diisopropylphenyl)-4-dimethylaminodibenz[b,e]oxepin-11-carboxamide hydrochloride], in data set [1], the “Inhibiting rate(%) of ACAT” value was determined as 100%. Regarding `Cc1cc2c(c(C)c1Br)C(C(=O)Nc1c(C(C)C)cccc1C(C)C)c1ccccc1CO2` (stereo not drawn) [Compound 56, 2-Bromo-6,11-dihydro-N-(2,6-diisopropylphenyl)-1,3-dimethyldibenz[b,e]oxepin-11-carboxamide], in data set [1], the “Inhibiting rate(%) of ACAT” value is reported as 99%. On to `CCc1cccc(CC)c1NC(=O)C1c2ccccc2COc2cc(C)c(Br)c(C)c21` (stereo not drawn) [Compound 57, 2-Bromo-N-(2,6-diethylphenyl)-6,11-dihydro-1,3-dimethyldibenz[b,e]oxepin-11-carboxamide], for which the “Inhibiting rate(%) of ACAT” value in data set [1] was 98%. As for `Cc1cc(Cl)c2c(c1C)C(C(=O)Nc1c(C(C)C)cccc1C(C)C)c1ccccc1CO2` (stereo not drawn) [Compound 59, 4-Chloro-6,11-dihydro-N-(2,6-diisopropylphenyl)-1,2-dimethyldibenz[b,e]oxepin-11-carboxamide], the “Inhibiting rate(%) of ACAT” value in data set [1] is reported as 100%. On to `Cc1cc(C)c2c(c1)OCc1ccccc1C2C(=O)Nc1c(C(C)C)cccc1C(C)C` (stereo not drawn) [Compound 62, 6,11-Dihydro-N-(2,6-diisopropylphenyl)-1,3-dimethyldibenz-[b,e]oxepin-11-carboxamide], for which the “Inhibiting rate(%) of ACAT” value in data set [1] is 100%. On the same count and under the same terms, the same measure for `Cc1ccc(Cl)c2c1C(C(=O)Nc1c(C(C)C)cccc1C(C)C)c1ccccc1CO2` (stereo not drawn) [Compound 64, 4-Chloro-6,11-dihydro-N-(2,6-diisopropylphenyl) -1-methyldibenz[b,e]oxepin-11-carboxamide]: 100%. Take `Cc1ccc2c(c1)C(C(=O)Nc1c(C(C)C)cccc1C(C)C)c1ccccc1CC2` (stereo not drawn) [Compound 68, 10,11-Dihydro-N-(2,6-diisopropylphenyl)-3-methyl-5H-dibenz[a,d]cyclohepten-5-carboxamide]: in data set [1], the “Inhibiting rate(%) of ACAT” value was 99%. `CC(C)c1cccc(C(C)C)c1NC(=O)C1c2ccccc2CCc2cc(Br)ccc21` (stereo not drawn) [Compound 69, 2-Bromo-10,11-dihydro-N-(2,6-diisopropylphenyl) -5H-dibenz[a,d]cyclohepten-5-carboxamide]: the “Inhibiting rate(%) of ACAT” value in data set [1] came to 98%.
